Data from PubChem BioAssay AID1259407 (Chemical Carcinogenesis Research Information System (CCRIS), 2018).
The source made the active and inactive calls. The rule behind the calls is not given here.

Tested on: CCRIS mutagenicity, Ames/micronucleus/aberration tests
Assay: CCRIS mutagenicity studies
Conditions: Method: PREINCUBATION

Measured: mutagenic call

C1=CC2C3C=CC(C3)C2C1 (stereo not drawn)
inactive: Test System: AMES SALMONELLA TYPHIMURIUM, Strain/Indicator: TA98, Metabolic Activation: HAMSTER, LIVER, S-9, AROCLOR 1254 (10%) inactive; negative | Test System: AMES SALMONELLA TYPHIMURIUM, Strain/Indicator: TA98, Metabolic Activation: NONE inactive; negative | Test System: AMES SALMONELLA TYPHIMURIUM, Strain/Indicator: TA98, Metabolic Activation: RAT LIVER S-9, PHENOBARBITAL AND BETA-NAPHTHOFLAVONE inactive; negative | Test System: AMES SALMONELLA TYPHIMURIUM, Strain/Indicator: TA98, Metabolic Activation: RAT, LIVER, S-9, AROCLOR 1254 (10%) inactive; negative | Test System: AMES SALMONELLA TYPHIMURIUM, Strain/Indicator: TA100, Metabolic Activation: HAMSTER, LIVER, S-9, AROCLOR 1254 (10%) inactive; negative | Test System: AMES SALMONELLA TYPHIMURIUM, Strain/Indicator: TA100, Metabolic Activation: NONE inactive; negative | Test System: AMES SALMONELLA TYPHIMURIUM, Strain/Indicator: TA100, Metabolic Activation: RAT LIVER S-9, PHENOBARBITAL AND BETA-NAPHTHOFLAVONE inactive; negative | Test System: AMES SALMONELLA TYPHIMURIUM, Strain/Indicator: TA100, Metabolic Activation: RAT, LIVER, S-9, AROCLOR 1254 (10%) inactive; negative | Test System: AMES SALMONELLA TYPHIMURIUM, Strain/Indicator: TA1535, Metabolic Activation: HAMSTER, LIVER, S-9, AROCLOR 1254 (10%) inactive; negative | Test System: AMES SALMONELLA TYPHIMURIUM, Strain/Indicator: TA1535, Metabolic Activation: NONE inactive; negative | Test System: AMES SALMONELLA TYPHIMURIUM, Strain/Indicator: TA1535, Metabolic Activation: RAT LIVER S-9, PHENOBARBITAL AND BETA-NAPHTHOFLAVONE inactive; negative | Test System: AMES SALMONELLA TYPHIMURIUM, Strain/Indicator: TA1535, Metabolic Activation: RAT, LIVER, S-9, AROCLOR 1254 (10%) inactive; negative | Test System: AMES SALMONELLA TYPHIMURIUM, Strain/Indicator: TA1537, Metabolic Activation: HAMSTER, LIVER, S-9, AROCLOR 1254 (10%) inactive; negative | Test System: AMES SALMONELLA TYPHIMURIUM, Strain/Indicator: TA1537, Metabolic Activation: NONE inactive; negative | Test System: AMES SALMONELLA TYPHIMURIUM, Strain/Indicator: TA1537, Metabolic Activation: RAT LIVER S-9, PHENOBARBITAL AND BETA-NAPHTHOFLAVONE inactive; negative | Test System: AMES SALMONELLA TYPHIMURIUM, Strain/Indicator: TA1537, Metabolic Activation: RAT, LIVER, S-9, AROCLOR 1254 (10%) inactive; negative | Test System: E.COLI, Strain/Indicator: WP2UVRA, Metabolic Activation: NONE inactive; negative | Test System: E.COLI, Strain/Indicator: WP2UVRA, Metabolic Activation: RAT LIVER S-9, PHENOBARBITAL AND BETA-NAPHTHOFLAVONE inactive; negative
